Earlier results on 2 compounds are cited in US7009061B2, “Diterpene compounds” (Nihon University, priority 2003, dated 2006).

The data set relates to P-388 cells.

Turning to `CCCCCCCCCCCCCCCC(=O)OCC1=C[C@@H]2C(=O)[C@]3(C=C(C)[C@H](OC(=O)C(C)C(C)C)[C@@]3(O)[C@@H]1O)[C@H](C)C[C@]1(OC(=O)CCCCCCCCCCC)[C@H]2C1(C)C` (some centres unmarked) [kansuiphorin A], the “depressive activities against P-388 cells in vivo” value is “depressive activities”.
Turning to kanusiphorin B, the “depressive activities against P-388 cells in vivo” value is listed as “depressive activities”.
